According to patent US20260335277A1, “CHLOROTONIL DERIVATIVES” (priority 2023, published 2026):
Values after ≈ are worked out from the molar mass of the structure shown.

Experiments:
[1] = test system: S. aureus N315 (methicillin-resistant, MRSA); test: MIC testing (broth microdilution, EUCAST); assay type: cell-based; details: Staphylococcus aureus, MRSA
Protocol: (§1) Minimal inhibitory concentration (MIC) of the compounds in the present invention was determined using broth microdilution performed according to EUCAST guidelines (ISO20776-1:2019). S. aureus ATCC29213 and E. faecalis ATCC29212 served as quality control strains.

S. epidermidis DSM-28765 = test: MIC testing (broth microdilution, EUCAST); assay type: cell-based; details: Staphylococcus epidermidis, DSM28765, S. epidermidis DSM-28765; read-out: MIC S. epiderm.
Protocol: as §1

[2] = test system: mature gametocytes (stages IV and V); test: Activity against mature gametocytes (stage IV-V), bioluminescence assay; assay type: cell-based, P. falciparum; details: Plasmodium falciparum
Protocol: Activity against gametocytes was determined using an in vitro bioluminescence assay as described previously (doi.org/10.1371/journal.pone.0035019).

zebrafish larvae = test: Toxicity in zebrafish larvae (MTC / IC50); assay type: in vivo
Protocol: For toxicity screening, zebrafish larvae were exposed three days post fertilization and monitored for 48 h until five days post fertilization. All malformations and pathophysiological phenotypes were noted and used to determine the inhibitory concentration (IC50) of the respective derivative against zebrafish larvae. The selectivity index (SI) was then calculated using the IC50 and the MIC of either S. aureus or P. falciparum 3D7.

Aqueous solubility = assay type: physicochemical
Protocol: (§2) Complementing the toxicity profiling, ADME properties of the lead dehalogenil were determined. This had not been possible for the first generation frontrunner ChB1-Epo2 or the natural product ChA because of their poor limit of detection. […] Across species (mouse, rat, human), metabolic stability is high while plasma stability is moderate. Besides, no hemolysis and no inhibition of the metabolically important enzyme CYP3A4 was observed by both dehalogenil and ChA. Plasma protein binding (PPB) is >99.4% in all species.

Hemolysis = assay type: cell-based
Protocol: as §2

CYP3A4 = test: Inhibition of CYP3A4; assay type: in vitro ADME
Protocol: as §2

P. falciparum = P. falciparum infection models, per oral; assay type: in vivo; details: 50 mg/kg per oral
From the text: (§3) In addition, standard in vitro ADME parameters cannot be uniquely determined since chlorotonil A concentrations in these assays were always below the limit of detection. […] Both compounds (chlorotonil A and B1-Epo2) could be administered at low doses intravenously, however, only when dissolved in a vehicle which is not suitable for further development as part of preclinic studies as it contained high amounts of organic solvents (10 vol. % ethanol, 5 vol. % DMSO).

[3] = Toxicity in mouse models after multiple PO dosing; assay type: in vivo; details: multiple PO dosing at 100 mg/kg
From the text: as §3

[4] = test system: mature gametocytes (stages IV and V); details: stage IV-V gametocytes; cited from earlier work
[5] = test system: chloroquine-sensitive laboratory strains of Plasmodium falciparum; details: cited from earlier work
[6] = test system: chloroquine-resistant laboratory strains of Plasmodium falciparum; details: cited from earlier work
[7] = test system: clinical isolates from Gabon; details: read-out: median IC50; cited from earlier work
Plasmodium falciparum = details: cited from earlier work
parasitemia = details: mice, 4 day suppression test, 36-110 mg/kg oral, pilot experiments; cited from earlier work
[8] = test system: chloroquine-resistant P. falciparum; test: Drug sensitivity assay, asexual stages (HRP2 ELISA, 72 h); assay type: cell-based; details: Plasmodium falciparum; chloroquine-resistant P. falciparum Dd2; mean ± SD
Protocol: (§4) Drug sensitivity assays of asexual plasmodium stages were carried out as described before (doi: 10.1128/AAC.49.8.3575-3577.2005). Briefly, the drugs were distributed in a 3-fold serial dilution in 96-well plates. Synchronized ring-stage parasites were diluted to a parasitemia of 0.05% with O Rh+ erythrocytes incomplete culture medium and seeded at a hematocrit of 1.5% in a total volume of 225 μL per well. Thereafter, the plates were incubated at 5% CO2, 5% O2, at 37° C. for 72 h, then they were frozen and thawed three times. The growth inhibition of P. falciparum was measured through an enzyme-linked immunosorbent assay (ELISA) for histidine-rich protein 2 (HRP2) using a microplate reader.

[9] = test system: drug-sensitive P. falciparum 3D7; test: as above; assay type: cell-based; details: Plasmodium falciparum, mean ± SD, read-out: chloroquine IC50
Protocol: as §4

Row | Structure (SMILES) | MIC [1] [µg/mL] | MIC (S. epidermidis DSM-28765) [µg/mL] | IC50 [2] [nM] | toxicity effects in zebrafish larvae models (zebrafish larvae; comparative studies) | IC50 in zebrafish larvae (zebrafish larvae; exposed 3 days post fertilization, monitored 48 h) [nM] | water solubility (Aqueous solubility) | hemolysis (Hemolysis) | inhibition of CYP3A4 (CYP3A4) | efficacy in P. falciparum infection model (cure) (P. falciparum) | toxicity in mouse models [3] | gametocytocidal activity compared with other tested compounds [4] | IC50 [5] [nM] | IC50 [6] [nM] | IC50 [7] [nM] | development of resistant parasites in vitro by drug pressure (Plasmodium falciparum) | reduced parasitemia (parasitemia) [%] | IC50 [8] [nM] | IC50 [9] [nM]
1 | CC1=C[C@@H](C)[C@H]2[C@@H]3C(=O)C(Cl)(Cl)C(=O)[C@H](C)C(=O)O[C@@H](C)/C=C/C=C\[C@@H](C)[C@@H]3C=C[C@@H]2C1 [ChA, reference compound] | 0.05 (≈ 0.104 µM) | 0.05 (≈ 0.104 µM) | 9.5 ± 3 | cardiotoxic, hepatotoxic and developmental toxicity effects | 1090 | poor water solubility | no hemolysis | no inhibition | full cure | general adverse effects, and cardio- and hepatotoxicity | superior activity to all other tested compounds in this assay, besides epoxomicin | 9 | 18 | 15.2 | not possible to develop resistant parasites in vitro | > 90 | – | –
2 | CCN(CC)CCCC(C)Nc1ccnc2cc(Cl)ccc12 (stereo not drawn) [Chloroquine] | – | – | – | – | – | – | – | – | – | – | – | – | – | – | – | – | 226 ± 76 | 7.4
